{"source": "patent US20250262214A1", "about": "“INTERMITTENT DOSING REGIMEN FOR AZENOSERTIB IN TREATING CANCER” (Zeno Management, Inc., priority 2022, published 2025)", "key": {"[1]": {"system": "human ovarian cancer SKOV3", "assay": "Human ovarian cancer SKOV3 animal model, tumor volume", "assay_type": "in vivo", "conditions": "80 mg/kg 3 cycles 5 days on/2 days off vs continuous 60 mg/kg, 21 days", "description": "In an exemplary human ovarian cancer SKOV3 animal model, Azenosertib was administered at a continuous dose of 60 mg/kg or at an intermittent dosing of 80 mg/kg at 3 cycles of 5 days on/2 days off (5/2)."}, "[2]": {"system": "human ovarian cancer OVCAR3", "assay": "Human ovarian cancer OVCAR3 model, tumor volume", "assay_type": "in vivo", "description": "In an exemplary human ovarian cancer OVCAR3 model, Azenosertib was administered at a dose of about 100 mg/kg at intermittent dosing regimen of 3 cycles of 7 days on/7 days off (7/7). Tumor volume change was plotted in FIG. 1I and corresponding change in body weight in FIG. 1J until about 32 days post-initiation of treatment.\nIn an exemplary human ovarian cancer OVCAR3 model, Azenosertib was administered based on an intermittent dosing regimen of 5 days on/2 days off (5/2) for a once daily dose (as compared to a twice daily dose (e.g., 80 mg/kg once daily vs. 40 mg/kg twice daily and 100 mg/kg once daily vs. 50 mg/kg twice daily).\nTumor volume was measured as shown in FIG. 2A and corresponding changes in body weight are shown in FIG. 2B until about 22 days post initiation of treatment.\nIn an exemplary human ovarian cancer OVCAR3 model, Azenosertib was administered at two different doses in each of two intermittent dosing regimen. Briefly, Azenosertib was administered 5 cycles of a 5 days on/2 days off (5/2) intermittent regimen at a dose of about 80 mg/kg (cumulative dose of 400 mg) and 90 mg/kg (cumulative dose of 450 mg) and also 4 cycles of a 4 days on/3 days off (4/3) intermittent regimen at 90 mg/kg (cumulative dose of 450 mg) and 100 mg/kg (cumulative dose of 500 mg). The results were compared with a continuous dose of 60 mg/kg for 22 days (cumulative dose of 300 mg).\nChanges in tumor volume are shown in FIG. 2C and corresponding change in body weight in FIG. 2D until about 24 days post-initiation of treatment.\nIn an exemplary human ovarian cancer OVCAR3 model, Azenosertib was administered at 100 mg/kg in 3 cycles each of two intermittent dosing regimen, 4 days on/3 days off (4/3) or 3 days on/4 days off (3/4). Further, a continuous dosing of 60 mg/kg was administered for 24 days.\nAt a dose of 3 cycles of about 100 mg/kg for 4/3, the cumulative dose was 1200 mg, while at a dose of 3 cycles of about 100 mg/kg for 3/4, the cumulative dose was 900 mg.\nAzenosertib and the PARPi, talazoparib, were evaluated using OVCAR-3 models on an intermittent dosing schedule. […] In addition, the alternating dosing schedule may potentially abrogate overlapping toxicity with WEE1 inhibitor and PARPi coadministration.\nIn an exemplary human ovarian cancer OVCAR3 animal model, Azenosertib was administered at an intermittent dosing of 60 mg/kg or 80 mg/kg at 3 cycles of 5 days on/2 days off, while Paclitaxel and Carboplatin were also each administered at respectively 20 mg/kg and 25 mg/kg, once a week, for 3 weeks In addition, the combinations of Azenosertib and Paclitaxel and of Azenosertib and Carboplatin were administered in accordance with the same dosing regimens and doses as their respective monotherapies."}, "Wee1": {"target": "T1, Wee1 (Homo sapiens, UniProt P30291)", "T1 construct": "from tissue; host or cells: skin biopsies of treated subjects", "T1 sequence (P30291 whole entry)": "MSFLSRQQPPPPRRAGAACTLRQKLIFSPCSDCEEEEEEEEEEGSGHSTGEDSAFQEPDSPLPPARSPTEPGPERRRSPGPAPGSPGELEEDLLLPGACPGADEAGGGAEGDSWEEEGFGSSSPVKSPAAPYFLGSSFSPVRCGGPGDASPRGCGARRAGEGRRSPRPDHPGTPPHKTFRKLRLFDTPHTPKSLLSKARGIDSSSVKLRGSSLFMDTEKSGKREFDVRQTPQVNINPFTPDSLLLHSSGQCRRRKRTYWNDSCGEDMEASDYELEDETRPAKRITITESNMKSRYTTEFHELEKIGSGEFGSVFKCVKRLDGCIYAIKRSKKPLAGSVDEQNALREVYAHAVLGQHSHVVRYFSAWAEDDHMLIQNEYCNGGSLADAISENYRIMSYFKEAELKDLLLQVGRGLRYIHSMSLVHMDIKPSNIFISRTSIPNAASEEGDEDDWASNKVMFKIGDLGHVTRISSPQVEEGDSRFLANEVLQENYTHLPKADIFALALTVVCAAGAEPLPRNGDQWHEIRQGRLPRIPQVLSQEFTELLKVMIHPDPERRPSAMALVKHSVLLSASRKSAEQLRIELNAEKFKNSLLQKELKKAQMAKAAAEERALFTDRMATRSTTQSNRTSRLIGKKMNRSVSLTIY", "assay": "PK/PD correlation, Wee1 target engagement (p-CDK1 in skin biopsies)", "assay_type": "in vivo", "from_the_text": "CDK1 phosphorylation (pCDK-1) is mediated by Wee1. It is contemplated that Wee1 inhibition by Azenosertib results in pCDK1 inhibition."}, "[3]": {"system": "ovarian cancer and uterine serous carcinoma (USC)", "assay": "Phase 1a/1b Azenosertib monotherapy study, tumor response (RECIST 1.1)", "assay_type": "in vivo, human", "description": "(§1) In this example, a Phase 1a dose escalation and Phase 1b dose expansion clinical study was carried out to evaluate the safety and pharmacokinetics (PK), i.e. steady state exposure (AUC0-24) and concentration maximum (Cmax) of Azenosertib monotherapy.\n(§2) In some cohorts, a phase 1a dose escalation was carried out starting at doses below 200 mg, escalating to 200 mg, 300 mg, 350 mg, 400 mg, and 450 mg total daily dose in continuous dosing regimen. The dose used in Phase 1b was 300 mg QD.\n(§3) In some cohorts, a phase 1a dose escalation was carried out starting at doses of 350 mg, 400 mg, 450 mg and 500 mg total daily dose at a 5:2 or 4:3 dosing regimen. The doses used in Phase 1b were 350 mg and 400 mg at 5:2 dosing regimen.\nTumor assessments (per RECIST 1.1) were carried out every 2 cycles (6 weeks) in subjects recruited in the study. There were no biomarker requirements to enroll in the study; nor were there any prior therapy requirements. Individuals in the cohorts represented multiple tumor types (FIG. 9A). Heavily pretreated subjects with advanced solid tumors were included in continuous and intermittent dosing cohorts (Table 6).\n51 subjects were enrolled with Uterine Serous Carcinoma (USC) or High Grade Serous Ovarian Cancer (HGSOC) after multiple prior therapies in cohorts treated with continuous or intermittent dosing schedules (Table 7A) and intermittent dosing schedule only (Table 7B).\n(§4) A total of 127 heavily pretreated subjects with advanced solid tumors were treated with Azenosertib monotherapy at ascending dose levels of either continuous daily dosing or intermittent weekly administration schedules. Across all tumor types, 74 subjects were treated with continuous dosing schedules and 53 subjects were treated with intermittent dosing schedules."}, "[4]": {"assay": "Phase 1 Azenosertib monotherapy study, PK, safety and RP2D", "assay_type": "in vivo, human", "description": "as §1, §2, §3\nIn this example, a Phase 1 Azenosertib dose optimization study was carried out to evaluate the recommended phase II dose (RP2D) of Azenosertib monotherapy.\nas §4"}, "Half-life of Azenosertib": {"assay": "Half-life of Azenosertib", "assay_type": "in vivo", "conditions": "plasma"}, "[5]": {"conditions": "intermittent dosing cohort, platinum-resistant ovarian cancer and USC, median follow-up 9.2 months"}}, "note": "Entries after “also recorded” stand apart in the source; their conditions may differ.", "data": [{"molecule": "C=CCn1c(=O)c2cnc(Nc3ccc(N4CCN(C)CC4)cc3)nc2n1-c1ccc2c(n1)[C@@](O)(CC)CC2", "note": "[Azenosertib, (R)-2-allyl-1-(7-ethyl-7-hydroxy-6,7-dihydro-5H-cyclopenta[b]pyridin-2-yl)-6-((4-(4-methylpiperazin-1-yl)phenyl)amino)-1,2-dihydro-3H-pyrazolo[3,4-d]pyrimidin-3-one]", "values": [{"measurement": "change in tumor volume, intermittent vs continuous dosing", "setting": "[1]", "value": "more efficacious; also recorded: higher efficacy than continuous dosing in reducing tumor volume"}, {"measurement": "tumor volume, intermittent 4/3 or 3/4 vs continuous dosing", "setting": "[2]; 100 mg/kg 3 cycles 4/3 or 3/4 vs 60 mg/kg continuous for 24 days", "value": "higher efficacy than continuous dosing"}, {"measurement": "efficacy of 4/3 regimen vs 3/4 regimen", "setting": "[2]; 100 mg/kg, 3 cycles, 4/3 = higher cumulative dose", "value": "slightly higher efficacy"}, {"measurement": "tumor volume, once daily vs twice daily dose", "setting": "[2]; 5/2, 80 mg/kg once daily vs 40 mg/kg twice daily, 100 mg/kg once daily vs 50 mg/kg twice daily, same cumulative dose", "value": "more efficacious relative to each twice daily dose; also recorded: more efficacious relative to a twice daily dose"}, {"measurement": "tumor volume, intermittent 5/2 and 4/3 vs continuous dose", "setting": "[2]; 80, 90 mg/kg 5/2 and 90, 100 mg/kg 4/3 vs 60 mg/kg continuous, about 24 days", "value": "more efficacious than the lower continuous dose"}, {"measurement": "tumor volume, 7/7 intermittent dosing regimen", "setting": "[2]; about 100 mg/kg, 3 cycles of 7 days on/7 days off, about 32 days", "value": "effective in reducing tumor volume"}, {"measurement": "decrease of p-CDK1 levels", "setting": "Wee1; dose of greater than about 300 mg once daily", "value": "at least 50%"}, {"measurement": "p-CDK1 levels in skin biopsies following treatment relative to baseline", "setting": "Wee1; skin biopsies", "value": "decreases in p-CDK1 levels"}, {"measurement": "overall Objective Response Rate (ORR %)", "setting": "[3]; Azenosertib monotherapy, N=51, N with at least 1 scan=40", "value": 27.5, "unit": "%"}, {"measurement": "subjects with stable disease (SD) or partial response (PR) as best overall response", "setting": "[3]; USC and HGSOC subjects", "value": 95, "unit": "%"}, {"measurement": "subjects with target lesion reductions from baseline scans", "setting": "[3]; USC and HGSOC subjects", "value": 89, "unit": "%"}, {"measurement": "ORR %", "setting": "[3]; [5]", "value": 36.8, "unit": "%"}, {"measurement": "mPFS", "setting": "[3]; [5]", "value": 6.5, "unit": "months"}, {"measurement": "median PFS", "setting": "[3]; ovarian, early follow up of median 4.4 months", "value": "around 5.1 months"}, {"measurement": "steady state exposure AUC (0-24), intermittent RP2D vs continuous", "setting": "[4]; 400 mg QD 5/2 compared to 300 mg QD continuous administration", "value": "more than doubled"}, {"measurement": "cases of febrile neutropenia and sepsis", "setting": "[4]; Azenosertib monotherapy including intermittent dosing", "value": "no observed cases of febrile neutropenia and sepsis"}, {"measurement": "RP2D as a monotherapy", "setting": "[4]; daily (QD), 5 days on, 2 days off (5/2) weekly schedule", "value": 400, "unit": "mg"}, {"measurement": "discontinuations due to TRAEs", "setting": "[4]; intermittent cohorts", "value": "no reported discontinuation; also recorded: No discontinuations due to TRAEs"}, {"measurement": "gastrointestinal, fatigue, and hematologic Grade 3 and 4 treatment-related adverse events (TRAEs)", "setting": "[4]; intermittent versus continuous dosing", "value": "comparable or favorable versus continuous dosing"}, {"measurement": "safety and tolerability, intermittent vs continuous dosing", "setting": "[4]; monotherapy", "value": "improved tolerability"}, {"measurement": "maximal concentration (Cmax) levels, intermittent vs continuous dosing regimen", "setting": "[4]; monotherapy, Phase 1", "value": "higher maximal concentration (Cmax) levels"}, {"measurement": "half-life", "setting": "Half-life of Azenosertib", "value": 8, "unit": "h"}]}]}
